Results published in article PMC6943742, “Peptide/Peptoid Hybrid Oligomers: The Influence of Hydrophobicity and Relative Side-Chain Length on Antibacterial Activity and Cell Selectivity” (Molecules, 2019).
≈ marks a conversion by molar mass, not a printed value. Non-standard residues stand in square brackets, D forms with d. Residues, ends and D or L forms follow the SMILES beside them. Gly(NCH2CH2Ph) = O=C(O)CNCCc1ccccc1; Gly(N-2-aminoethyl) = NCCNCC(=O)O; hPhe = N[C@@H](CCc1ccccc1)C(=O)O; Gly(N(CH2)3NH2) = NCCCNCC(=O)O; Orn = NCCC[C@H](N)C(=O)O; Dab = NCC[C@H](N)C(=O)O; Nlys = NCCCCNCC(=O)O

Legend:
[1] = Relative hydrophobicity by RP-HPLC (% MeCN at peak elution); assay type: physicochemical; details: RP-HPLC gradient 0 → 60% B during 10 min; % MeCN at peak elution calculated from retention time
Experimental: The relative hydrophobicity of each peptidomimetic was measured by reverse-phase high-performance liquid chromatography (RP-HPLC). Typically, the RP-HPLC retention time (or percentage acetonitrile at peak elution) constitutes the preferred measure that allows for comparison of relative hydrophobicity, while log P values of polycationic peptides or peptidomimetics normally are considered unsuitable due to the extreme hydrophilic nature of such compounds [11, 45, 57, 58, 59, 60]. […] For both subgroups III (with cationic amino acid residues and the peptoid analogue of Phe, NPhe, i.e., 9–12) and IV (with cationic amino acid residues and the peptoid analogue of hPhe, NhPhe, i.e., 13–16) only minor differences in hydrophobicity were seen. These observations infer that, when the cationic residues are of a peptoid nature, the side-chain length of these has a […] influence on the hydrophobicity. […] Thus, introduction of additional six methylene groups results, as expected, in increased hydrophobicity.
Starting materials and solvents were purchased from commercial suppliers (Iris Biotech, Markredwitz, Germany; Fluorochem, Hadfield, United Kingdom; and Merck, Darmstadt, Germany) and used without further purification. Water used for analytical and preparative high-performance liquid chromatography (HPLC) was filtered through a 0.22-μm Millipore membrane filter. Purity and retention time of each peptidomimetic were determined by analytical UHPLC by using a Phenomenex Luna C18(2) HST column (100 mm × 3 mm; particle size: 2.5 μm; pore size: 100 Å) on a Shimadzu Prominence and Shimadzu Nexera system using an aqueous acetonitrile (MeCN) gradient with 0.1% trifluoroacetic acid (TFA) added (eluent A: 5:95 MeCN–H2O + 0.1% TFA, eluent B: 95:5 MeCN–H2O + 0.1% TFA); a flow rate of 0.5 mL/min was used. For elution of peptidomimetics, a linear gradient of 0% to 60% B during 10 min was used with UV detection at λ = 220 nm. […] For each peptidomimetic, the percentage of MeCN at peak elution was calculated from the retention time by using the following formula:(1) %MeCN = 0.95 (0.6Rt/10 min.) + 0.05 (1−0.6Rt/10 min.).

[2] = tested on: HepG2 cell line ATCC HB-8065; test: in vitro; assay type: cell-based; details: 48 h
Experimental: Side effects affecting cell viability were estimated on the HepG2 cell line ATCC HB-8065. In brief, HepG2 cells were seeded in flat-bottomed 96-well plates at a concentration of 5000 cells per well. At 80−90% confluency, the cells were incubated for 24 h in a humidified incubator (5% CO2, 37 °C). The medium was removed, and the cells were incubated for 48 h in a humidified incubator (5% CO2, 37 °C) with compounds in two-fold serial dilutions. An MTT assay was then performed as previously described. In brief, after incubation with the test compounds, the culture medium was removed and fresh medium with 0.2 mg/mL MTT was added in each well of the plate. After incubation (3 h, 37 °C, 5% CO2), the medium with MTT was removed, and 200 μL dimethyl sulfoxide were added at once to each sample. Absorbance of MTT was measured using spectrophotometer TECAN Infinite M1000 at 540 nm. The relative viability was calculated by using the formula: ODtreated cells × 100/ODcontrol cells. The IC50 values are calculated by using the program Graph Pad Prism® 5.0. For all compounds, the test range was 10–1280 μg/mL.

[3] = tested on: P. aeruginosa ATCC 27853; assay type: cell-based; details: ATCC 27853, 20 h
Experimental: (§1) MIC values were evaluated by using the modified Hancock lab protocol in non-binding polystyrene microtitre plates, with bacterial suspensions of ∼2 × 10^5 CFU/mL in Mueller-Hinton broth (Difco, Sparks MD, USA), with Mg^2+ and Ca^2+ concentrations of 4 mg/L each. The compounds were dissolved in H2O and diluted in 0.01% acetic acid, 0.2% BSA (final concentration). Aliquots of 11 µL of 10 × test compounds were then transferred to the appropriate wells with bacterial suspensions. For preparation and transfer of the solutions of the compounds, low-binding sterile tubes and tips (Axygen, Union City CA, USA) were used. After 20 h incubation of covered plates at 35 °C (±2 °C) with circular shaking at 220 rpm, the MICs were read. The antibacterial activity of peptidomimetics was tested against E. coli ATCC 25922, K. pneumoniae ATCC 13883, P. aeruginosa ATCC 27853, P. aeruginosa PAO1, A. baumannii ATCC 19606, S. aureus ATCC 29213, and E. faecalis ATCC 29212.

[4] = tested on: E. faecalis ATCC 29212; assay type: cell-based; details: for MIC: ATCC 29212, 20 h
Experimental: as §1

[5] = tested on: K. pneumoniae ATCC 13883; assay type: cell-based; details: ATCC 13883, 20 h
Experimental: as §1

[6] = tested on: A. baumannii ATCC 19606; assay type: cell-based; details: ATCC 19606, 20 h
Experimental: as §1

[7] = tested on: E. coli ATCC 25922; assay type: cell-based; details: ATCC 25922, 20 h
Experimental: as §1

[8] = tested on: S. aureus ATCC 29213; assay type: cell-based; details: for MIC: ATCC 29213, 20 h
Experimental: as §1

[9] = tested on: P. aeruginosa PAO1; assay type: cell-based; details: PAO1, 20 h
Experimental: as §1

[10] = in vitro; assay type: cell-based; details: human, Hemolytic Activity (percentage hemolysis)
Experimental: The lysis of human red blood cells was measured as previously described, with modifications. In brief, freshly drawn human red blood cells (hRBCs) were washed three times with PBS buffer and centrifuged two times for 5 min at 2500 rpm. A two-fold serial dilution of peptidomimetics in PBS buffer was added to each well in a sterile polypropylene V-bottom 96-well plate to the total volume of 75 μL. A 0.5% v/v hRBC suspension (75 μL in PBS buffer) was added to each well to reach a final volume of 150 μL in each well. The plate was incubated (37 °C) for 60 min, and then the cells were subsequently pelleted by centrifugation at 1000 rpm for 5 min. The supernatants (50 μL) were transferred to clear, flat-bottomed plastic 96-well plates. The concentration of hemoglobin was detected by measuring the OD at 405 nm. The OD of cells incubated with 0.1% SDS defined 100% hemolysis, while the OD of cells incubated with PBS buffer defined 0% hemolysis. The concentrations tested were 200, 400, and 800 μg/mL (only average values for the highest concentration are stated in Table 2).

Structure (SMILES)	Hydrophobicity (% MeCN at elution) [1] [%]	IC50 for inhibiting growth of HepG2 cells [2] [µg/mL]	MIC [3] [µg/mL]	MIC [4] [µg/mL]	MIC [5] [µg/mL]	MIC [6] [µg/mL]	MIC [7] [µg/mL]	MIC [8] [µg/mL]	MIC [9] [µg/mL]	Activity against E. faecalis (in words) ([4]; E. faecalis)	Activity against S. aureus (in words) [8]	hemolysis at 60 min, 800 µg/mL [10] [%]
NCC[C@H](NC(=O)CN(CCc1ccccc1)C(=O)[C@H](CCN)NC(=O)CN(CCc1ccccc1)C(=O)[C@H](CCN)NC(=O)CN(CCc1ccccc1)C(=O)[C@H](CCN)NC(=O)CN(CCc1ccccc1)C(=O)[C@H](CCN)NC(=O)CN(CCc1ccccc1)C(=O)[C@@H](N)CCN)C(=O)N(CCc1ccccc1)CC(N)=O [Peptidomimetic 13] (H-[Dab][Gly(NCH2CH2Ph)][Dab][Gly(NCH2CH2Ph)][Dab][Gly(NCH2CH2Ph)][Dab][Gly(NCH2CH2Ph)][Dab][Gly(NCH2CH2Ph)][Dab][Gly(NCH2CH2Ph)]-NH2)		261	2 (≈ 1.26 µM)	>64	32 (≈ 20.2 µM)	>64	4 (≈ 2.52 µM)	>64	2 to 4			53
NCCC[C@H](NC(=O)CN(CCc1ccccc1)C(=O)[C@H](CCCN)NC(=O)CN(CCc1ccccc1)C(=O)[C@H](CCCN)NC(=O)CN(CCc1ccccc1)C(=O)[C@H](CCCN)NC(=O)CN(CCc1ccccc1)C(=O)[C@H](CCCN)NC(=O)CN(CCc1ccccc1)C(=O)[C@@H](N)CCCN)C(=O)N(CCc1ccccc1)CC(N)=O [Peptidomimetic 14] (H-[Orn][Gly(NCH2CH2Ph)][Orn][Gly(NCH2CH2Ph)][Orn][Gly(NCH2CH2Ph)][Orn][Gly(NCH2CH2Ph)][Orn][Gly(NCH2CH2Ph)][Orn][Gly(NCH2CH2Ph)]-NH2)	40.5	684	8 (≈ 4.79 µM)	>64	32 (≈ 19.2 µM)	>64	4 to 8	>64	8 to 16			11
NCCCC[C@H](NC(=O)CN(CCc1ccccc1)C(=O)[C@H](CCCCN)NC(=O)CN(CCc1ccccc1)C(=O)[C@H](CCCCN)NC(=O)CN(CCc1ccccc1)C(=O)[C@H](CCCCN)NC(=O)CN(CCc1ccccc1)C(=O)[C@H](CCCCN)NC(=O)CN(CCc1ccccc1)C(=O)[C@@H](N)CCCCN)C(=O)N(CCc1ccccc1)CC(N)=O [Peptidomimetic 15] (H-K[Gly(NCH2CH2Ph)]K[Gly(NCH2CH2Ph)]K[Gly(NCH2CH2Ph)]K[Gly(NCH2CH2Ph)]K[Gly(NCH2CH2Ph)]K[Gly(NCH2CH2Ph)]-NH2)	40.5	595	16 (≈ 9.13 µM)	>64	>64	64 (≈ 36.5 µM)	4 (≈ 2.28 µM)	>64	8 to 16			8

Continued, in another order:

Hydrophobicity (% MeCN at elution) [1] [%]	IC50 for inhibiting growth of HepG2 cells [2] [µg/mL]	MIC [3] [µg/mL]	MIC [4] [µg/mL]	MIC [5] [µg/mL]	MIC [6] [µg/mL]	MIC [7] [µg/mL]	MIC [8] [µg/mL]	MIC [9] [µg/mL]	Structure (SMILES)	Activity against E. faecalis (in words) ([4]; E. faecalis)	Activity against S. aureus (in words) [8]	hemolysis at 60 min, 800 µg/mL [10] [%]
43.5	307	4 (≈ 2.52 µM)	32 (≈ 20.2 µM)	64 (≈ 40.4 µM)	>64	4 (≈ 2.52 µM)	8 (≈ 5.05 µM)	16 (≈ 10.1 µM)	NCCNCC(=O)N[C@@H](CCc1ccccc1)C(=O)N(CCN)CC(=O)N[C@@H](CCc1ccccc1)C(=O)N(CCN)CC(=O)N[C@@H](CCc1ccccc1)C(=O)N(CCN)CC(=O)N[C@@H](CCc1ccccc1)C(=O)N(CCN)CC(=O)N[C@@H](CCc1ccccc1)C(=O)N(CCN)CC(=O)N[C@@H](CCc1ccccc1)C(N)=O [Peptidomimetic 5] (H-[Gly(N-2-aminoethyl)][hPhe][Gly(N-2-aminoethyl)][hPhe][Gly(N-2-aminoethyl)][hPhe][Gly(N-2-aminoethyl)][hPhe][Gly(N-2-aminoethyl)][hPhe][Gly(N-2-aminoethyl)][hPhe]-NH2)	weak activity	moderate activity	
41.2	456	8 (≈ 4.79 µM)	>64	>64	>64	4 (≈ 2.4 µM)	16 (≈ 9.59 µM)	16 to 32	NCCCNCC(=O)N[C@@H](CCc1ccccc1)C(=O)N(CCCN)CC(=O)N[C@@H](CCc1ccccc1)C(=O)N(CCCN)CC(=O)N[C@@H](CCc1ccccc1)C(=O)N(CCCN)CC(=O)N[C@@H](CCc1ccccc1)C(=O)N(CCCN)CC(=O)N[C@@H](CCc1ccccc1)C(=O)N(CCCN)CC(=O)N[C@@H](CCc1ccccc1)C(N)=O [Peptidomimetic 6] (H-[Gly(N(CH2)3NH2)][hPhe][Gly(N(CH2)3NH2)][hPhe][Gly(N(CH2)3NH2)][hPhe][Gly(N(CH2)3NH2)][hPhe][Gly(N(CH2)3NH2)][hPhe][Gly(N(CH2)3NH2)][hPhe]-NH2)		moderate activity	8
40.6	720	32 (≈ 18.3 µM)	>64	>64	>64	2 to 4	>64	32 to 64	NCCCCNCC(=O)N[C@@H](CCc1ccccc1)C(=O)N(CCCCN)CC(=O)N[C@@H](CCc1ccccc1)C(=O)N(CCCCN)CC(=O)N[C@@H](CCc1ccccc1)C(=O)N(CCCCN)CC(=O)N[C@@H](CCc1ccccc1)C(=O)N(CCCCN)CC(=O)N[C@@H](CCc1ccccc1)C(=O)N(CCCCN)CC(=O)N[C@@H](CCc1ccccc1)C(N)=O [Peptidomimetic 7] (H-[Nlys][hPhe][Nlys][hPhe][Nlys][hPhe][Nlys][hPhe][Nlys][hPhe][Nlys][hPhe]-NH2)			6
